Assay results from PMC6384738, “Structure-Function Studies of Polymyxin B Lipononapeptides” (Molecules, 2019).
In brackets after ≈: the same amount, converted by molar mass. Where a SMILES comes first, the peptide text is derived from it. Bridges are numbered along the chain shown (N, C = ends). [ ]: non-standard residue; d: D form. The star is where a group is joined. Hexanoyl(6-Ph) = O=C(CCCCCc1ccccc1)*; dDab = NCC[C@@H](N)C(=O)O; hSer = N[C@@H](CCO)C(=O)O; Octanoyl = CCCCCCCC(=O)*; Dab = NCC[C@H](N)C(=O)O

What was measured:
in vitro = conditions: human
Outline: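 HK-2 cells seeded 2000 cells/well in DMEM/F12 with 10% FBS, grown 24 h, then exposed to compounds (300 µM to 2.3 µM, 2-fold series; colistin/polymyxin B 1 mM to 7.8 µM) for 24 h at 37 °C. LDH in medium read at 450 nm after 30 min; cytotoxicity % relative to 1% Triton X-100 and untreated cells.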

[1] = test system: ATCC reference strains (Escherichia coli, Klebsiella pneumoniae, A. baumannii, and P. aeruginosa)
Experimental: All compounds synthesised in this study were assessed for their minimum inhibitory concentrations (MIC, mg/L) by broth microdilution assay against five antibiotic-sensitive and resistant ATCC reference strains covering the Gram-negative ESKAPE pathogens (Escherichia coli, Klebsiella pneumoniae, A. baumannii, and P. aeruginosa) (Table 1, Table 2 and Table 3). Staphylococcus aureus was also included as a representative Gram-positive bacterial strain. […] Polymyxin B 1, colistin 2, vancomycin and gentamicin were used as positive inhibitor comparator compounds. Compounds were counter-screened against human proximal tubular epithelial cells (HK-2), using LDH release as a general indicator of cellular toxicity.

K. pneumoniae BAA 2146 = experiment: microbe, parasite or virus in culture; conditions: for MIC K. pneumoniae BAA 2146: BAA 2146, 18 h
Outline: (§1)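 Values are minimum inhibitory concentrations in mg/L, obtained by serial dilution of compound in broth with the bacterial strain. Polymyxin B, colistin, vancomycin and gentamicin were run alongside as reference antibacterials.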

P. aeruginosa ATTC 27853 = experiment: microbe, parasite or virus in culture; conditions: for MIC P. aeruginosa ATTC 27853: ATTC 27853, 18 h
Outline: as §1

K. pneumoniae ATCC 13833 = experiment: microbe, parasite or virus in culture; conditions: for MIC K. pneumoniae ATCC 13833: ATCC 13833, 18 h
Outline: as §1

S. aureus ATCC 25923 = experiment: microbe, parasite or virus in culture; conditions: for MIC S. aureus ATCC 25923: ATCC 25923, 18 h
Outline: as §1

[2] = test system: K. pneumoniae ATCC 700603; experiment: microbe, parasite or virus in culture; conditions: for MIC K. pneumoniae ATCC 700603: ATCC 700603, 18 h
Outline: as §1

A. baumannii ATCC 19606 = experiment: microbe, parasite or virus in culture; conditions: for MIC A. baumannii ATCC 19606: ATCC 19606, 18 h
Outline: as §1

E. coli ATCC 25922 = experiment: microbe, parasite or virus in culture; conditions: for MIC E. coli ATCC 25922: ATCC 25922, 18 h
Outline: as §1

[3] = test system: P. aeruginosa FADDI PA070; experiment: microbe, parasite or virus in culture; conditions: for MIC P. aeruginosa FADDI PA070: FADDI PA070, 18 h
Outline: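 Antibacterial activity: broth microdilution MIC (mg/L) against the reference isolate.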

SMILES	CC50 at 24 h (in vitro) [µM]	MIC K. pneumoniae BAA 2146 (K. pneumoniae BAA 2146) [µg/mL]	MIC P. aeruginosa ATTC 27853 (P. aeruginosa ATTC 27853) [µg/mL]	MIC K. pneumoniae ATCC 13833 (K. pneumoniae ATCC 13833) [µg/mL]	MIC S. aureus ATCC 25923 (S. aureus ATCC 25923) [µg/mL]	MIC K. pneumoniae ATCC 700603 [2] [µg/mL]	MIC A. baumannii ATCC 19606 (A. baumannii ATCC 19606) [µg/mL]	MIC E. coli ATCC 25922 (E. coli ATCC 25922) [µg/mL]	MIC P. aeruginosa FADDI PA070 [3] [µg/mL]	other results
CCCCCCCC(=O)N[C@H](C(=O)N[C@@H](CCN)C(=O)N[C@H]1CCNC(=O)[C@H]([C@@H](C)O)NC(=O)[C@H](CCN)NC(=O)[C@H](CCN)NC(=O)[C@H](CC(C)C)NC(=O)[C@@H](Cc2ccccc2)NC(=O)[C@H](CCN)NC1=O)[C@@H](C)O [Compound 8] (Octanoyl-T[Dab][Dab][Dab][dF]L[Dab][Dab]T; lactam 3-C)	209	2 (≈ 1.84 µM)	0.5 (≈ 0.459 µM)	1 (≈ 0.918 µM)	>32	2 (≈ 1.84 µM)	–	–	–	MIC for most strains [1]: 1 to 2 µg/mL
CCCCCCCC(=O)N[C@H](C(=O)N[C@@H](CCN)C(=O)N[C@@H]1CCNC(=O)[C@H]([C@@H](C)O)NC(=O)[C@H](CCN)NC(=O)[C@H](CCN)NC(=O)[C@H](CC(C)C)NC(=O)[C@@H](Cc2ccccc2)NC(=O)[C@H](CCN)NC1=O)[C@@H](C)O [Compound 19] (Octanoyl-T[Dab][dDab][Dab][dF]L[Dab][Dab]T; lactam 3-C)	> 300	>32	>32	>32	>32	>32	>32	>32	–	MIC for all strains [1]: > 32 µg/mL
CC(C)C[C@@H]1NC(=O)[C@@H](Cc2ccccc2)NC(=O)[C@H](CCN)NC(=O)[C@@H](NC(=O)[C@@H](CCN)NC(=O)[C@@H](NC(=O)CCCCCc2ccccc2)[C@@H](C)O)CCNC(=O)[C@H]([C@@H](C)O)NC(=O)[C@H](CCN)NC(=O)[C@H](CCN)NC1=O [Compound 25] ({Hexanoyl(6-Ph)}-T[dDab][Dab][Dab][dF]L[Dab][Dab]T; lactam 3-C)	> 300	0.5 (≈ 0.44 µM)	2 (≈ 1.76 µM)	4 (≈ 3.52 µM)	>32	1 (≈ 0.879 µM)	2 (≈ 1.76 µM)	0.5 (≈ 0.44 µM)	8 (≈ 7.03 µM)	MIC against the ATCC strains [1]: 0.5 to 4 µg/mL
CCCCCCCC(=O)N[C@@H](CCO)C(=O)N[C@H](CCN)C(=O)N[C@H]1CCNC(=O)[C@H]([C@@H](C)O)NC(=O)[C@H](CCN)NC(=O)[C@H](CCN)NC(=O)[C@H](CC(C)C)NC(=O)[C@@H](Cc2ccccc2)NC(=O)[C@H](CCN)NC1=O [Compound 31] (Octanoyl-[hSer][dDab][Dab][Dab][dF]L[Dab][Dab]T; lactam 3-C)	181	8 (≈ 7.34 µM)	2 (≈ 1.84 µM)	>32	>32	8 (≈ 7.34 µM)	>32	16 (≈ 14.7 µM)	8 (≈ 7.34 µM)	–
CCCCCCCC(=O)N[C@@H](CCC(=O)O)C(=O)N[C@H](CCN)C(=O)N[C@H]1CCNC(=O)[C@H]([C@@H](C)O)NC(=O)[C@H](CCN)NC(=O)[C@H](CCN)NC(=O)[C@H](CC(C)C)NC(=O)[C@@H](Cc2ccccc2)NC(=O)[C@H](CCN)NC1=O [Compound 32] (Octanoyl-E[dDab][Dab][Dab][dF]L[Dab][Dab]T; lactam 3-C)	> 300	>32	4 (≈ 3.58 µM)	>32	>32	32 (≈ 28.6 µM)	>32	>32	>32	–
CCCCCCCC(=O)NCC(=O)N[C@H](CCN)C(=O)N[C@H]1CCNC(=O)[C@H]([C@@H](C)O)NC(=O)[C@H](CCN)NC(=O)[C@H](CCN)NC(=O)[C@H](CC(C)C)NC(=O)[C@@H](Cc2ccccc2)NC(=O)[C@H](CCN)NC1=O [Compound 33] (Octanoyl-G[dDab][Dab][Dab][dF]L[Dab][Dab]T; lactam 3-C)	262	>32	1 (≈ 0.957 µM)	>32	>32	32 (≈ 30.6 µM)	>32	16 (≈ 15.3 µM)	>32	–
CCCCCCCC(=O)N[C@H](C(=O)N[C@@H](CO)C(=O)N[C@H]1CCNC(=O)[C@H]([C@@H](C)O)NC(=O)[C@H](CCN)NC(=O)[C@H](CCN)NC(=O)[C@H](CC(C)C)NC(=O)[C@@H](Cc2ccccc2)NC(=O)[C@H](CCN)NC1=O)[C@@H](C)O [Compound 35] (Octanoyl-TS[Dab][Dab][dF]L[Dab][Dab]T; lactam 3-C)	220	16 (≈ 14.9 µM)	16 (≈ 14.9 µM)	>32	>32	32 (≈ 29.7 µM)	>32	–	–	MIC for most strains [1]: 16 to 32 µg/mL
CCCCCCCC(=O)N[C@@H](CCN)C(=O)N[C@H](C(=O)N[C@@H](CCN)C(=O)N[C@H]1CCNC(=O)[C@H]([C@@H](C)O)NC(=O)[C@H](CCN)NC(=O)[C@H](CCN)NC(=O)[C@H](CC(C)C)NC(=O)[C@@H](Cc2ccccc2)NC(=O)[C@H](CCN)NC1=O)[C@@H](C)O [PmxB3, polymyxin B3, reference compound] (Octanoyl-[Dab]T[Dab][Dab][Dab][dF]L[Dab][Dab]T; lactam 4-C)	> 300	0.5 (≈ 0.42 µM)	0.5 (≈ 0.42 µM)	2 (≈ 1.68 µM)	>32	1 (≈ 0.841 µM)	–	–	–	fold more active than nonapeptide 8 ([1]; MIC comparison against most strains): 2- to 4 fold
CN[C@H](CC(C)C)C(=O)N[C@H]1C(=O)N[C@@H](CC(N)=O)C(=O)N[C@H]2C(=O)N[C@H]3C(=O)N[C@H](C(=O)N[C@H](C(=O)O)c4cc(O)cc(O)c4-c4cc3ccc4O)[C@H](O)c3ccc(c(Cl)c3)Oc3cc2cc(c3O[C@@H]2O[C@H](CO)[C@@H](O)[C@H](O)[C@H]2O[C@H]2C[C@](C)(N)[C@H](O)[C@H](C)O2)Oc2ccc(cc2Cl)[C@H]1O [Vanc, vancomycin, reference compound]	> 300	–	–	–	–	–	–	–	–	MIC (K. pneumoniae BAA 2146; Klebsiella pneumoniae, BAA2146, 18 h, read-out: MIC K. pneumoniae BAA 2146): > 32 µg/mL; MIC ([3]; Pseudomonas aeruginosa, FADDIPA070, 18 h, read-out: MIC P. aeruginosa FADDI PA070): > 32 µg/mL; MIC (P. aeruginosa ATTC 27853; Pseudomonas aeruginosa, ATTC27853, 18 h, read-out: MIC P. aeruginosa ATTC 27853): > 32 µg/mL; MIC (A. baumannii ATCC 19606; Acinetobacter baumannii, ATCC19606, 18 h, read-out: MIC A. baumannii ATCC 19606): > 32 µg/mL; MIC (K. pneumoniae ATCC 13833; Klebsiella pneumoniae, ATCC13833, 18 h, read-out: MIC K. pneumoniae ATCC 13833): > 32 µg/mL; MIC (S. aureus ATCC 25923; Staphylococcus aureus, ATCC25923, 18 h, read-out: MIC S. aureus ATCC 25923): 2 µg/mL (≈ 1.38 µM); MIC ([2]; Klebsiella pneumoniae, ATCC700603, 18 h, read-out: MIC K. pneumoniae ATCC 700603): > 32 µg/mL; MIC (E. coli ATCC 25922; Escherichia coli, ATCC25922, 18 h, read-out: MIC E. coli ATCC 25922): > 32 µg/mL
